Tests used:
Format in all cases: in vivo
Veronica persica (VERPE) = experiment: Herbicidal pre-emergence action, section C (Table C10); details: visual grading after ca. 3 weeks; for pest or weed control at 320 g/ha: Veronica persica, pre-emergence, 504 h, read-out: pre-emergence activity against VERPE in %
Excerpt: (§1) Seeds of mono- and dicotyledonous weed plants and crop plants were sown, in plastic or organic planting pots, in sandy loam and covered with soil. The compounds according to the invention, formulated in the form of wettable powders (WP) or as emulsifiable concentrates (EC), were applied to the surface of the covering soil as aqueous suspension or emulsion, with the addition of 0.5% of an additive, at an application rate of 600 l of water/ha (converted). Following treatment, the pots were placed in a greenhouse and kept under optimum growth conditions for the test plants. The visual grading of the damage to the test plants was carried out after ca. 3 weeks in comparison to untreated controls (herbicidal effect in percent (%): 100% effect=plants have died off, 0% effect=as control plants).

[1] = test system: Matricaria inodora (MATIN); experiment: Herbicidal pre-emergence action, section C (Table C6); details: visual grading after ca. 3 weeks
Excerpt: as §1

[2] = test system: Echinochloa crus-galli (ECHCG); experiment: Herbicidal post-emergence action, section E (Table E5); details: visual assessment ca. 3 weeks after spraying
Excerpt: Seeds of mono- and dicotyledonous weed plants and crop plants were sown, in plastic or organic planting pots, in sandy loam, covered with soil and grown in a greenhouse under controlled growth conditions. 2 to 3 weeks after sowing, the test plants were sprayed in the single-leaf stage. The compounds according to the invention, formulated in form of wettable powders (WP) or as emulsifiable concentrates (EC), were sprayed onto the green plant parts as aqueous suspension or emulsion, with the addition of 0.5% of an additive, at an application rate of 600 l of water/ha (converted). The test plants were placed in the greenhouse for ca. 3 weeks under optimum growth conditions, and then the effect of the preparations was assessed visually in comparison with untreated controls (herbicidal effect in percent (%): 100% effect=plants have died off, 0% effect=as control plants).

[3] = test system: Alopecurus myosuroides (ALOMY); experiment: Herbicidal pre-emergence action, section C (Table C2); details: visual grading after ca. 3 weeks vs untreated controls; for pest or weed control at 320 g/ha: Alopecurus myosuroides, pre-emergence, 504 h, read-out: pre-emergence activity against ALOMY in %
Summary of the method: (§2)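 Compounds applied as aqueous WP or EC preparations (0.5% additive, 600 l water/ha) onto soil covering freshly sown seeds in sandy loam. Herbicidal effect is visually estimated % damage after about 3 weeks, where 100% means plants died off and 0% matches controls.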

Glycine max (GLXMA) = experiment: Pre-emergence effects on crop plants, section D (Table D4); details: visual grading after ca. 3 weeks
Summary of the method: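 Formulated compound (wettable powder or emulsifiable concentrate) was applied pre-emergence to the soil surface at 320 g/ha or lower. Greenhouse-grown plants were rated visually for percent damage after ca. 3 weeks.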

[4] = test system: Digitaria sanguinalis (DIGSA); experiment: Herbicidal pre-emergence action, section C (Table C12); details: visual grading after ca. 3 weeks; for pest or weed control at 80 g/ha: Digitaria sanguinalis, pre-emergence, 504 h, read-out: pre-emergence activity against DIGSA in %
Summary of the method: as §2

Stellaria media (STEME) [5] = experiment: Herbicidal pre-emergence action, section A (Table A9)
Summary of the method: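 Visual scoring at approximately 3 weeks, relative to untreated pots, gave percent effect after compounds in WP or EC form were sprayed onto covering soil of sown seeds (sandy loam) in water with 0.5% additive at 600 l/ha, then kept in greenhouse.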

Setaria viridis (SETVI) = experiment: Herbicidal post-emergence action, section B (Table B8); details: application rate 1280 g/ha, visual rating about 3 weeks after treatment vs untreated controls; for pest or weed control at 1280 g/ha: Setaria viridis, post-emergence, 504 h, read-out: post-emergence activity against SETVI in %
Summary of the method: (§3)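 Scores are visual % activity relative to untreated plants (0% = like control, 100% = dead), taken about 3 weeks after spraying. Compounds, as WP or EC in water with 0.5% additive at 600 L/ha, went onto one-leaf-stage weeds grown from seed in sandy loam under greenhouse conditions.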

Stellaria media (STEME) [6] = experiment: Herbicidal post-emergence action, section B (Table B9); details: visual rating about 3 weeks after treatment vs untreated controls; for pest or weed control at 1280 g/ha: Stellaria media, post-emergence, 504 h, read-out: post-emergence activity against STEME in %
Summary of the method: as §3

[7] = test system: Amaranthus retroflexus (AMARE); experiment: Herbicidal post-emergence action, section B (Table B11); details: visual rating about 3 weeks after treatment vs untreated controls
Summary of the method: as §3

[8] = test system: Abutilon theophrasti (ABUTH); experiment: Herbicidal post-emergence action, section B (Table B1); details: rated visually after about 3 weeks
Summary of the method: as §3

[9] = Tripleurospermum inodorum, pre-emergence, 504 h, application rate 320 g/ha, read-out: pre-emergence activity against MATIN in %
[10] = Echinochloa crus-galli, 504 h, application rate 320 g/ha, read-out: post-emergence activity against ECHCG in %

SMILES	pest or weed control at 320 g/ha (Veronica persica (VERPE); application rate 320 g/ha)	post-emergence activity against ABUTH in % ([8]; application rate 320 g/ha)	pre-emergence activity against DIGSA in % ([4]; application rate 80 g/ha)	pre-emergence activity against MATIN in % ([1]; application rate 320 g/ha)	pre-emergence activity against STEME in % (Stellaria media (STEME) [5]; application rate 320 g/ha)	post-emergence activity against SETVI in % (Setaria viridis (SETVI))	post-emergence activity against STEME in % (Stellaria media (STEME) [6]; application rate 320 g/ha)	post-emergence activity against ECHCG in % ([2]; application rate 320 g/ha)	post-emergence activity against AMARE in % ([7]; application rate 320 g/ha)	pre-emergence activity against ALOMY in % ([3]; application rate 80 g/ha)	pre-emergence activity against VERPE in % (Veronica persica (VERPE); application rate 80 g/ha)	pre-emergence activity against DIGSA in % ([4]; application rate 320 g/ha)	also measured
Fc1ccccc1-c1nc2c(cc1Br)SCN2 [Example I-001, 6-bromo-5-(2-fluorophenyl)-2,3-dihydro[1,3]thiazolo[4,5-b]pyridine]	80%	–	–	–	–	–	–	–	–	–	–	–	pest or weed control at 320 g/ha [1, 9]: 90%; pest or weed control at 320 g/ha [2, 10]: 90%; pest or weed control at 320 g/ha ([3]; application rate 320 g/ha): 100%; pre-emergence activity against GLXMA in % (crop plant damage) (Glycine max (GLXMA); application rate 320 g/ha): 0%
Cc1cc2c(nc1-c1ccccc1F)NCS2 [Example I-007, 5-(2-fluorophenyl)-6-methyl-2,3-dihydro[1,3]thiazolo[4,5-b]pyridine]	80%	–	–	–	–	–	–	–	–	–	–	–	pest or weed control at 80 g/ha ([4]; application rate 80 g/ha): 100%; pest or weed control at 80 g/ha ([1]; Tripleurospermum inodorum, pre-emergence, 504 h, application rate 80 g/ha, read-out: pre-emergence activity against MATIN in %): 80%; pest or weed control at 1280 g/ha (Stellaria media (STEME) [5]; Stellaria media, 504 h, application rate 1280 g/ha, read-out: pre-emergence activity against STEME in %): 90%; pest or weed control at 1280 g/ha (Setaria viridis (SETVI)): 90%; pest or weed control at 1280 g/ha (Stellaria media (STEME) [6]; application rate 1280 g/ha): 90%; pest or weed control at 80 g/ha ([2]; Echinochloa crus-galli, 504 h, application rate 80 g/ha, read-out: post-emergence activity against ECHCG in %): 90%; pest or weed control at 1280 g/ha ([7]; Amaranthus retroflexus, post-emergence, 504 h, application rate 1280 g/ha, read-out: post-emergence activity against AMARE in %): 90%; pest or weed control at 320 g/ha ([3]; application rate 320 g/ha): 100%
COC(=O)CCC(=O)N1CSc2cc(C)c(-c3ccccc3F)nc21 [Example I-010]	–	90%	100%	90%	100%	90%	90%	90%	90%	90%	–	–	pre-emergence activity against VERPE in % (Veronica persica (VERPE); application rate 320 g/ha): 90%
Cc1cc2c(nc1-c1ccccc1F)N(C(=O)C1(C)CC(Cl)=NO1)CS2 (stereo not shown) [Example I-083]	–	90%	–	90%	90%	90%	90%	–	90%	90%	80%	100%	post-emergence activity against ECHCG in % ([2]; application rate 80 g/ha): 80%
Cc1cc2c(nc1-c1ccccc1F)N(C(=O)C13CCCC1C(Cl)=NO3)CS2 (stereo not shown) [Example I-104]	–	90%	100%	–	90%	90%	90%	80%	90%	–	–	–	pre-emergence activity against MATIN in % ([1]; application rate 800 g/ha (so in the source)): 90%; pre-emergence activity against ALOMY in % ([3]; application rate 320 g/ha): 100%
CCOCCS(=O)(=O)N1C[S+]([O-])c2cc(C)c(-c3ccccc3F)nc21 (stereo not shown) [Example I-127]	90%	–	–	–	–	–	–	–	–	–	–	–	pest or weed control at 80 g/ha ([4]; application rate 80 g/ha): 100%; pest or weed control at 320 g/ha [1, 9]: 90%; pest or weed control at 320 g/ha (Stellaria media (STEME) [5]; Stellaria media, 504 h, application rate 320 g/ha, read-out: pre-emergence activity against STEME in %): 90%; pest or weed control at 1280 g/ha (Setaria viridis (SETVI)): 90%; pest or weed control at 1280 g/ha (Stellaria media (STEME) [6]; application rate 1280 g/ha): 90%; pest or weed control at 320 g/ha [2, 10]: 90%; pest or weed control at 320 g/ha ([7]; Amaranthus retroflexus, post-emergence, 504 h, application rate 320 g/ha, read-out: post-emergence activity against AMARE in %): 90%; pre-emergence activity against GLXMA in % (crop plant damage) (Glycine max (GLXMA); application rate 80 g/ha): 20%
COCC1(C(=O)N2CSc3cc(C)c(-c4ccccc4F)nc32)CC(Cl)=NO1 (stereo not shown) [Example I-128]	–	90%	100%	–	90%	90%	90%	90%	90%	90%	80%	–	pre-emergence activity against MATIN in % ([1]; application rate 80 g/ha): 80%
Cc1ccccc1-c1nc2c(cc1C)SCN2C(=O)C1(C)CC(Cl)=NO1 (stereo not shown) [Example I-137]	–	–	–	90%	–	90%	–	90%	90%	80%	80%	100%	post-emergence activity against ABUTH in % ([8]; application rate 1280 g/ha): 90%; pre-emergence activity against STEME in % (Stellaria media (STEME) [5]; application rate 1280 g/ha): 100%; post-emergence activity against STEME in % (Stellaria media (STEME) [6]; application rate 1280 g/ha): 90%
CC1(C(=O)N2CSc3cc(Br)c(-c4ccccc4)nc32)CC(Cl)=NO1 (stereo not shown) [Example I-139]	–	–	–	80%	90%	90%	–	90%	90%	–	–	100%	pre-emergence activity against VERPE in % (Veronica persica (VERPE); application rate 320 g/ha): 80%; post-emergence activity against ABUTH in % ([8]; application rate 1280 g/ha): 90%; post-emergence activity against STEME in % (Stellaria media (STEME) [6]; application rate 1280 g/ha): 90%; pre-emergence activity against ALOMY in % ([3]; application rate 320 g/ha): 80%
